ChEMBL document CHEMBL4266049, “A Steroid-Type Antioxidant Targeting the Keap1/Nrf2/ARE Signaling Pathway from the Soft Coral Dendronephthya gigantea” (J Nat Prod, 2018)
Calls of active or inactive are those of the source. The rule behind the calls is not given here.

Legend:
[1] = system: PC-12; experiment: Cytoprotective activity against H2O2-induced oxidative injury in rat PC12 cells assessed as […] in cell viability at 10 uM pretreated for 24 hrs followed by 350 uM H2O2 challenge measured after 24 hrs by MTT assay; type: functional, cell-based
[2] = system: PC-12; experiment: Cytotoxicity against rat PC12 cells assessed as reduction in cell viability at 10 uM after 24 hrs by MTT assay; type: cell-based; details: pc-12, 24 h
[3] = system: PC-12; experiment: Cytoprotective activity against H2O2-induced oxidative injury in rat PC12 cells assessed as inhibition of MDA production pretreated for 24 hrs followed by H2O2 challenge measured after 16 hrs; type: functional, cell-based
[4] = target: T1, KEAP1/NRF2 (Rattus norvegicus) (UniProt O54968+P57790); experiment: Inhibition of Keap1/Nrf2 signaling in rat PC12 cells assessed as induction of nuclear translocation at 10 uM after 6 hrs by DAPI staining based fluorescence microscopic analysis; type: cell-based
[5] = system: PC-12; experiment: Cytoprotective activity against H2O2-induced oxidative injury in rat PC12 cells harboring siRNA assessed as increase in colony formation at 2 uM pretreated for 24 hrs followed by H2O2 challenge by crystal violet staining based assay; type: functional, cell-based
[6] = system: PC-12; experiment: Cytoprotective activity against H2O2-induced oxidative injury in rat PC12 cells harboring Nrf2 siRNA assessed as increase in cell viability at 10 uM pretreated for 24 hrs followed by H2O2 challenge measured after 24 hrs by MTT assay; type: functional, cell-based
[7] = system: PC-12; experiment: Cytoprotective activity against H2O2-induced oxidative injury in rat PC12 cells harboring siRNA assessed as increase in cell viability at 10 uM pretreated for 24 hrs followed by H2O2 challenge measured after 24 hrs by MTT assay; type: functional, cell-based
[8] = system: PC-12; experiment: Cytoprotective activity against H2O2-induced oxidative injury in rat PC12 cells assessed as reduction in intracellular reactive oxygen species formation pretreated for 24 hrs followed by H2O2 challenge measured after 3 hrs by DCFH-DA dye based fluorescence microscopic analysis; type: functional, cell-based
[9] = system: PC-12; experiment: Cytoprotective activity against H2O2-induced oxidative injury in rat PC12 cells assessed as […] in cell viability at 10 uM pretreated for 24 hrs followed by 500 uM H2O2 challenge measured after 24 hrs by MTT assay; type: functional, cell-based
[10] = target: T1, KEAP1/NRF2 (Rattus norvegicus); experiment: Inhibition of Keap1/Nrf2 signaling in rat PC12 cells assessed as induction of ARE by measuring increase in HO-1 expression after 24 hrs by Western blot analysis; type: cell-based
[11] = system: PC-12; experiment: Cytoprotective activity against H2O2-induced oxidative injury in rat PC12 cells harboring Nrf2 siRNA assessed as increase in colony formation at 2 uM pretreated for 24 hrs followed by H2O2 challenge by crystal violet staining based assay; type: functional, cell-based
[12] = system: PC-12; experiment: Cytoprotective activity against H2O2-induced oxidative injury in rat PC12 cells assessed as increase in colony formation at 1 to 2 uM pretreated for 24 hrs followed by H2O2 challenge by crystal violet staining based assay; type: functional, cell-based
[13] = system: PC-12; experiment: Cytoprotective activity against H2O2-induced oxidative injury in rat PC12 cells assessed as cell viability at 10 uM pretreated for 24 hrs followed by 350 uM H2O2 challenge measured after 24 hrs by MTT assay (reference value: 60%); type: functional
[14] = system: PC-12; experiment: Cytoprotective activity against H2O2-induced oxidative injury in rat PC12 cells assessed as decrease in LDH release after 24 hrs; type: functional, cell-based
[15] = system: PC-12; experiment: Cytoprotective activity against H2O2-induced oxidative injury in rat PC12 cells assessed as increase in colony formation at 5 uM pretreated for 24 hrs followed by H2O2 challenge by crystal violet staining based assay; type: functional, cell-based
[16] = target: T1, KEAP1/NRF2 (Rattus norvegicus); experiment: Inhibition of Keap1/Nrf2 signaling in rat PC12 cells assessed as induction of ARE by measuring increase in HO-1 expression at 10 uM after 24 hrs by Western blot analysis; type: cell-based
[17] = system: PC-12; experiment: Cytoprotective activity against H2O2-induced oxidative injury in rat PC12 cells assessed as inhibition of MDA production at 10 uM pretreated for 24 hrs followed by H2O2 challenge measured after 16 hrs; type: functional, cell-based
[18] = system: PC-12; experiment: Cytoprotective activity against H2O2-induced oxidative injury in rat PC12 cells assessed as reduction in intracellular reactive oxygen species formation at 10 uM pretreated for 24 hrs followed by H2O2 challenge measured after 3 hrs by DCFH-DA dye based fluorescence microscopic analysis; type: functional, cell-based

SMILES	Activity [1]	Activity [2]	other results
CC(C)CCC[C@@H](C)[C@H]1CC[C@H]2[C@@H]3C(=O)C=C4C[C@@H](O)CC[C@]4(C)[C@H]3CC[C@]12C	Active		
CC(=O)O[C@H]1C=C2C[C@@H](O)CC[C@]2(CO)[C@H]2CC[C@]3(C)[C@@H]([C@H](C)CCCC(C)C)CC[C@H]3[C@H]12	inactive	Non-Toxic	
CC(C)CCC[C@@H](C)[C@H]1CC[C@H]2[C@@H]3[C@H](O)CC4=CC(=O)CC[C@]4(C)[C@H]3CC[C@]12C	Active		
C=C(CC[C@@H](C)[C@H]1CC[C@H]2[C@@H]3C(=O)[C@H]4O[C@]45C[C@@H](O)CC[C@]5(COC(C)=O)[C@H]3CC[C@]12C)C(C)C	inactive	Non-Toxic	
C=C(CC[C@@H](C)[C@H]1CC[C@H]2[C@@H]3C(=O)[C@H]4O[C@]45C[C@@H](O)CC[C@]5(COC(C)=O)[C@H]3[C@H](OC(C)=O)C[C@]12C)C(C)C	inactive	Non-Toxic	
C=C(CC[C@@H](C)[C@H]1CC[C@H]2[C@@H]3C(=O)C=C4C[C@@H](O)CC[C@]4(COC(C)=O)[C@H]3CC[C@]12C)C(C)C		Non-Toxic	inhibition [3]: Dose-dependent effect; inhibition [4]: Active; Activity [5]: Active; Activity [6]: inactive; Activity [7]: Active; Activity [8]: Dose-dependent effect; Activity [9]: Active; inhibition [10]: Dose-dependent effect; Activity [11]: inactive; Activity [12]: Active; Activity [13]: 70%; Activity [14]: Dose-dependent effect
CC(=O)O[C@H]1C=C2C[C@@H](O)CC[C@]2(CO)[C@H]2CC[C@]3(C)[C@@H]([C@H](C)/C=C/CC(C)C)CC[C@H]3[C@H]12	inactive	Non-Toxic	
C=C(CC[C@@H](C)[C@H]1CC[C@H]2[C@@H]3[C@H](O)C=C4C[C@@H](O)CC[C@]4(COC(C)=O)[C@H]3CC[C@]12C)C(C)C		Non-Toxic	Activity [9]: inactive; Activity [13]: 70%
C=C(CC[C@@H](C)[C@H]1CC[C@H]2[C@@H]3CC=C4C[C@@H](O)CC[C@]4(CO)[C@H]3CC[C@]12C)C(C)C	inactive	Non-Toxic	
C=C(/C=C/[C@@H](C)[C@H]1CC[C@@H]2[C@]1(C)C[C@H](O)[C@@H]1[C@@]3(C)C[C@H](O)[C@H](OC(C)=O)[C@@H](C)[C@@H]3CC(=O)[C@@]21O)C(C)C	inactive	Non-Toxic	
C=C(/C=C/[C@@H](C)[C@H]1CC[C@H]2[C@@H]3C(=O)[C@H]4O[C@]45C[C@@H](O)CC[C@]5(COC(C)=O)[C@H]3CC[C@]12C)C(C)C	inactive	Non-Toxic	
CC(C)(C)c1cc(O)ccc1O			Activity [15]: Active; inhibition [16]: Active; inhibition [17]: Active; Activity [9]: Active; Activity [18]: Active
C=C(CC[C@@H](C)[C@H]1CC[C@@H]2[C@]1(C)C[C@H](O)[C@@H]1[C@@]3(C)C[C@H](O)[C@H](O)[C@@H](C)[C@@H]3CC(=O)[C@@]21O)C(C)C	inactive	Non-Toxic	
C=C(CC[C@@H](C)[C@H]1CC[C@H]2[C@@H]3[C@@H](O)C=C4C[C@@H](O)CC[C@]4(C)[C@H]3CC[C@]12C)C(C)C	inactive	Non-Toxic	
C=C(/C=C/[C@@H](C)[C@H]1CC[C@@H]2[C@]1(C)C[C@H](O)[C@@H]1[C@@]3(C)C[C@H](O)[C@H](O)[C@@H](C)[C@@H]3CC(=O)[C@@]21O)C(C)C	inactive	Non-Toxic	
C=C(CC[C@@H](C)[C@H]1CC[C@H]2[C@@H]3C(=O)[C@H]4O[C@]45C[C@@H](O)CC[C@]5(CO)[C@H]3CC[C@]12C)C(C)C	inactive	Non-Toxic	
C=C(CC[C@@H](C)[C@H]1CC[C@H]2[C@@H]3[C@@H](OC(C)=O)C=C4C[C@@H](O)CC[C@]4(CO)[C@H]3CC[C@]12C)C(C)C	inactive	Non-Toxic	
C=C(/C=C/[C@@H](C)[C@H]1CC[C@H]2[C@@H]3[C@@H](OC(C)=O)C=C4C[C@@H](O)CC[C@]4(CO)[C@H]3CC[C@]12C)C(C)C	inactive	Non-Toxic	
